Target: T1, DHPDH (Coprinopsis cinerea, UniProt A8P0V4)
T1 construct: gene PDH; isolated PQQ (AA12) dehydrogenase domain, residues 240-649, recombinant from Pichia pastoris, purified as apo-form
T1 sequence (A8P0V4 240-649): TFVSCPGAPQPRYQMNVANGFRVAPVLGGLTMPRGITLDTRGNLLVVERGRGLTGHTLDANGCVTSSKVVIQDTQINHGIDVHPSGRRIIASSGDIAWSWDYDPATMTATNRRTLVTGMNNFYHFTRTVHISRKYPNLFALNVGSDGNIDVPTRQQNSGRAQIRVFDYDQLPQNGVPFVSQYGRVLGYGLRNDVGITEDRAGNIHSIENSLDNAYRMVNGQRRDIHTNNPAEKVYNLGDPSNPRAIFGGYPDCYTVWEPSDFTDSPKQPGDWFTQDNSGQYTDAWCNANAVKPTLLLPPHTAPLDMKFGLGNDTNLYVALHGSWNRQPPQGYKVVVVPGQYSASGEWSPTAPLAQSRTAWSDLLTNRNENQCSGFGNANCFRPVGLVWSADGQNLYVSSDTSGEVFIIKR
Experiment: UV-vis spectral reduction of PQQ; PMS/DCPIP assay
Assay type: biochemical
Conditions: holo-form; 1 mM L-fucose; 50 mM HEPES pH 7.0; 1 mM CaCl2; room temperature (spectra)

Compound: C[C@@H]1OC(O)[C@@H](O)[C@H](O)[C@@H]1O (stereo partly drawn) [L-fucose]
- UV-vis spectral reduction of PQQ; PMS/DCPIP assay: The addition of L-fucose resulted in the reduction of PQQ

Source: article PMC4332668, “Characterization of a Novel PQQ-Dependent Quinohemoprotein Pyranose Dehydrogenase from Coprinopsis cinerea Classified into Auxiliary Activities Family 12 in Carbohydrate-Active Enzymes” (PLoS ONE, 2015)
